Test systems include Malme-3M; NCI-H23; IGROV-1; HOP-92; SF-539; HL-60; SK-MEL-28; KM-20L2; OVCAR-5; DMS-273; OVCAR-8; DMS-114; SNB-75; UO-31; MDA-MB-435; CCRF-CEM; BT-549; UACC-62; RPMI-8226; HCT-116.
Test in all cases: inhibition of tumour cell growth, NCI panel, 48 h

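Where inhibition never reached the appropriate level, the endpoint shown equals the highest concentration tested. Otherwise, values were interpolated linearly from a five-concentration, 48-hour dose response in 96-well plates. Abbreviation: GI50, concentration required for 50% inhibition of growth.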 Activity calls are given as the source filed them. No stated cut-off is given here; in the data, active = GI50 up to about 1.1 µM and inactive = higher.

As for `C=CC(=O)N1C/C(=C\c2ccccc2)C(=O)/C(=C/c2ccccc2)C1`, the GI50 with Malme-3M is 2.15 µM (inactive); in the test with NCI-H23, 2.14 µM (inactive); with IGROV-1, 1.97 µM (inactive); in the test on HOP-92 it was 3.62 µM (inactive); with SF-539, 1.58 µM (inactive); in the test on HL-60 it was 0.71 µM (active). Besides, the GI50 is 1.82 µM (inactive) in the test with SK-MEL-28; 1.66 µM (inactive) in the test with KM-20L2; 2.49 µM (inactive) with OVCAR-5; 0.668 µM (active) in the test on DMS-273; 1.3 µM (inactive) in the test on OVCAR-8; 1.01 µM (active) in the test with DMS-114. Moreover, the GI50 was 3.24 µM (inactive) in the test with SNB-75; 1.77 µM (inactive) in the test with UO-31; 0.53 µM (active) with MDA-MB-435; 0.351 µM (active) in the test on CCRF-CEM; 1.71 µM (inactive) in the test on BT-549; 1.19 µM (inactive) in the test on UACC-62. Also, the GI50 with RPMI-8226 is 0.0462 µM (active); with HCT-116, 0.195 µM (active).
Regarding `CCCCCCCCCCCCCC(=O)NO`, the GI50 in the test with Malme-3M was 32.1 µM (inactive); in the test on NCI-H23, 8.22 µM (inactive); with IGROV-1, 17.4 µM (inactive); in the test on HOP-92, 15.8 µM (inactive); in the test with SF-539 it was 14.1 µM (inactive); in the test with HL-60, 1.17 µM (inactive). The GI50 in the test on SK-MEL-28 was 31.6 µM (inactive); in the test on KM-20L2 it was 7.64 µM (inactive); with OVCAR-5, 17.6 µM (inactive); in the test on DMS-273, 14.3 µM (inactive); in the test on OVCAR-8, 12.1 µM (inactive); in the test on DMS-114 it was 3.6 µM (inactive). In addition, the GI50 in the test on SNB-75 was 11.4 µM (inactive); in the test on UO-31 it was 6.38 µM (inactive); in the test on MDA-MB-435 it was 25.3 µM (inactive); with CCRF-CEM it was 0.158 µM (active); with BT-549, 1.16 µM (inactive); in the test on UACC-62 it was 6.68 µM (inactive). Also, the GI50 is 5 µM (inactive) with RPMI-8226 and 8.85 µM (inactive) in the test on HCT-116.
With `Nc1ncnc2c1ncn2CC(O)C(=O)O` (centres undefined), the GI50 with Malme-3M, in the test with NCI-H23, in the test with IGROV-1, with HOP-92, in the test on SF-539 and in the test on HL-60 was > 100 µM (inactive) throughout. Further, the GI50 in the test with SK-MEL-28, in the test with KM-20L2, in the test on OVCAR-5, in the test on DMS-273, in the test with OVCAR-8 and with DMS-114 was > 100 µM (inactive) throughout. Further, the GI50 in the test on SNB-75, with UO-31, in the test with MDA-MB-435, with CCRF-CEM, in the test with BT-549 and in the test on UACC-62 was > 100 µM (inactive) each time. Also, the GI50 with RPMI-8226 and with HCT-116 was > 100 µM (inactive) each time.
Take `Cc1ccccc1-c1c(N)nc(N)nc1C(=O)Nc1nccs1`: the GI50 with Malme-3M, with NCI-H23, in the test with IGROV-1, in the test with HOP-92, in the test with SF-539 and in the test with HL-60 was > 100 µM (inactive) throughout. Besides, the GI50 with SK-MEL-28, in the test on KM-20L2, in the test on OVCAR-5, in the test with DMS-273, in the test on OVCAR-8 and in the test with DMS-114 was > 100 µM (inactive) throughout. For the same molecule, the GI50 in the test on SNB-75, in the test with UO-31, in the test with CCRF-CEM, in the test on UACC-62, with RPMI-8226 and in the test with HCT-116 was > 100 µM (inactive) throughout.
With `COC(C(=O)NCCCCNC(=O)C(OC)c1ccccc1)c1ccccc1` (centres undefined), the GI50 in the test on Malme-3M, in the test with NCI-H23, in the test with IGROV-1, with HOP-92, in the test with SF-539 and with HL-60 was > 100 µM (inactive) in each case. The GI50 with SK-MEL-28, in the test with KM-20L2, in the test with OVCAR-5, with DMS-273, in the test on OVCAR-8 and in the test on DMS-114 was > 100 µM (inactive) in each case. In addition, the GI50 in the test with SNB-75, in the test with UO-31, in the test with CCRF-CEM, in the test on UACC-62, with RPMI-8226 and in the test on HCT-116 was > 100 µM (inactive) in each case.
In the case of `COc1cc(/C=C\c2ccc(O)cc2)cc(OC)c1OC`, the GI50 in the test with Malme-3M was 4.25 µM (inactive); in the test with NCI-H23, 0.505 µM (active); in the test on IGROV-1 it was 5.24 µM (inactive); in the test on HOP-92 it was 0.293 µM (active); in the test on SF-539, 2.82 µM (inactive); in the test with HL-60, 10.3 µM (inactive). The GI50 with SK-MEL-28 was 1.91 µM (inactive); in the test with KM-20L2, 33.3 µM (inactive); in the test on OVCAR-5 it was 98.9 µM (inactive); in the test on DMS-273, 0.35 µM (active); in the test on OVCAR-8 it was 6.95 µM (inactive); in the test with DMS-114 it was 2.48 µM (inactive). Further, the GI50 was 3.94 µM (inactive) with SNB-75; 10.4 µM (inactive) in the test with UO-31; 3.72 µM (inactive) in the test on CCRF-CEM; 3.37 µM (inactive) with UACC-62; 0.402 µM (active) with RPMI-8226; 3.96 µM (inactive) in the test on HCT-116.
In the case of `CCCCCCCCCCCCCC(=O)O[C@H]1CC[C@H](NC(=O)[C@H](OC)[C@H](O)[C@@H](O)[C@H](O)/C=C/C(C)C)C(=O)NC1` [BENGAMIDE A], the GI50 is 0.0148 µM (active) in the test on Malme-3M; 0.0113 µM (active) in the test with NCI-H23; 0.00708 µM (active) with IGROV-1; 0.0204 µM (active) in the test on HOP-92; 0.0197 µM (active) in the test on SF-539; 0.00512 µM (active) in the test with HL-60. The GI50 with SK-MEL-28 is < 0.0103 µM (active); in the test on KM-20L2, 0.0045 µM (active); with OVCAR-5, 38.1 µM (inactive); in the test on DMS-273, 0.00512 µM (active); in the test with OVCAR-8, 0.00828 µM (active); with DMS-114, 0.00512 µM (active). Moreover, the GI50 in the test on SNB-75 is 0.0353 µM (active); in the test on UO-31 it was 0.106 µM (active); in the test on MDA-MB-435 it was 0.204 µM (active); in the test with CCRF-CEM, 0.00512 µM (active); with BT-549 it was 0.953 µM (active); with UACC-62, 0.00512 µM (active). The GI50 in the test with RPMI-8226 is 0.00634 µM (active); with HCT-116 it was 0.00512 µM (active).

For the origin of these results see ChEMBL document CHEMBL1201862, “PubChem BioAssay data set” (2004).
